From ChEMBL document CHEMBL1130098, “4-Heterocyclylpiperidines as selective high-affinity ligands at the human dopamine D4 receptor” (J Med Chem, 1997)

Columns and labels:
D(3) dopamine receptor = D(3) dopamine receptor (Homo sapiens, UniProt P35462)
Description: Ability to displace [3H]spiperone from human dopamine receptor D3 (hD3) receptor stably expressed in HEK293 cells.

D(4) dopamine receptor = molecular target: T1, D(4) dopamine receptor (Homo sapiens, UniProt P21917)
T1 sequence (P21917 whole entry): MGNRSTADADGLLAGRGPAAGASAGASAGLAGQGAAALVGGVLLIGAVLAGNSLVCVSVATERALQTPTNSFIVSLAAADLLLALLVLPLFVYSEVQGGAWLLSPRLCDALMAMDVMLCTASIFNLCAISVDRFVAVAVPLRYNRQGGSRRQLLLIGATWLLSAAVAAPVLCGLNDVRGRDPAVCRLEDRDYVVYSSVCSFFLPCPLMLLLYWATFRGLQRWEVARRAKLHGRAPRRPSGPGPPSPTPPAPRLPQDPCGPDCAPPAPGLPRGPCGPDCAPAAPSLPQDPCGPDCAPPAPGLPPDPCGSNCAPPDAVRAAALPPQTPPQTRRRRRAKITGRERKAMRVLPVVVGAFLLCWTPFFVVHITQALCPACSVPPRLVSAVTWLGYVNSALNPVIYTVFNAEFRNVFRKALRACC
Description: Ability to displace [3H]spiperone from human dopamine receptor D4 (hD4) receptor stably expressed in HEK293 cells.

D(3) dopamine receptor, sequence (P35462 whole entry): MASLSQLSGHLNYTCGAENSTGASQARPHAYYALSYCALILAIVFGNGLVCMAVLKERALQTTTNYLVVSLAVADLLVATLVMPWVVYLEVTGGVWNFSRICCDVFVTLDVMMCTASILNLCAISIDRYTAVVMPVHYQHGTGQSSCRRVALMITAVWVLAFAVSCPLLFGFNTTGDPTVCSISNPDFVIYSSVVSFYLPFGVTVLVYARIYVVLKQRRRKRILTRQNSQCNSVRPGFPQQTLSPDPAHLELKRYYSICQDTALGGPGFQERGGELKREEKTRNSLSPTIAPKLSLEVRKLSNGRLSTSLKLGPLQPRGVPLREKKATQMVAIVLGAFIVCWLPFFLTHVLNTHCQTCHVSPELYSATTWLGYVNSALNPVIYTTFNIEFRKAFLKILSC

Row | Compound | Ki (D(3) dopamine receptor) | Ki (D(4) dopamine receptor)
1 | Cc1c(-c2ccccc2)n[nH]c1C1=CCN(CCc2ccccc2)CC1 | 0.83 µM | 0.0031 µM
2 | Clc1ccc(-c2cc(C3CCN(CC4CCCCC4)CC3)[nH]n2)cc1 | 0.72 µM | 0.013 µM
3 | CC1(c2cc(-c3ccc(Cl)cc3)[nH]n2)CCN(Cc2ccccc2)CC1 | 1.3 µM | 0.047 µM
4 | Nc1nc(-c2ccc(Cl)cc2)cc(C2CCN(Cc3ccccc3)CC2)n1 | 0.14 µM | 0.001 µM
5 | c1ccc(CCN2CCN(c3cc(-c4ccccc4)[nH]n3)CC2)cc1 | 1.2 µM | 0.023 µM
6 | c1ccc(Cc2cc(C3CCN(Cc4ccccc4)CC3)[nH]n2)cc1 | 2.1 µM | 0.16 µM
7 | CCc1c(C2CCN(Cc3ccccc3)CC2)n[nH]c1-c1ccc(Cl)cc1 | 0.046 µM | 0.0015 µM
8 | Cc1c(C2CCN(Cc3ccccc3)CC2)n[nH]c1-c1ccc(Cl)cc1 | 0.43 µM | 0.0016 µM
9 | c1ccc(CCN2CCC(c3cc(C4CCCCC4)n[nH]3)CC2)cc1 | 1.2 µM | 0.01 µM
10 | Clc1ccc(-c2cc(C3CCCCN3Cc3ccccc3)[nH]n2)cc1 (configuration not stated) | 1.8 µM | 4.8 µM
11 | Clc1ccc(-c2cc(C3CCN(Cc4cccc(Cl)c4)CC3)[nH]n2)cc1 | 4.3 µM | 0.06 µM
12 | c1ccc(CCN2CCC(c3cc(-c4cccs4)[nH]n3)CC2)cc1 | 1.1 µM | 0.019 µM
13 | Clc1ccc(-c2cc(C3CCCN(Cc4ccccc4)C3)[nH]n2)cc1 (configuration not stated) | 0.24 µM | 0.41 µM
14 | c1ccc(CCN2CCC(c3cc(-c4ccccn4)[nH]n3)CC2)cc1 | 3.6 µM | 0.022 µM
15 | c1ccc(CN2CCC(c3cc(-c4ccccc4)[nH]n3)CC2)cc1 | 1.4 µM | 0.011 µM
16 | c1ccc(CCN2CCC3(CCc4c(-c5ccccc5)n[nH]c43)CC2)cc1 | 0.6 µM | 0.93 µM
17 | Cc1cc(C2CCN(Cc3ccccc3)CC2)[nH]n1 | 3.4 µM | 0.47 µM
18 | c1ccc(CCN2CCC(c3cc(-c4cccnc4)n[nH]3)CC2)cc1 | > 4.2 µM | 0.023 µM
19 | Clc1ccc(-c2cc(C3CCN(Cc4ccccc4)C3)[nH]n2)cc1 (configuration not stated) | 0.92 µM | 0.11 µM
20 | Clc1ccc(-c2cc(C3CCN(CCCc4ccccc4)CC3)[nH]n2)cc1 | 0.87 µM | 0.11 µM
21 | Clc1ccc(CN2CCC(c3cc(-c4ccc(Cl)cc4)no3)CC2)cc1 | 0.08 µM | –
22 | CC1(C(=O)/C=C(\O)c2ccc(Cl)cc2)CCN(Cc2ccccc2)CC1 | 0.51 µM | 0.35 µM
23 | Clc1ccc(-c2cc(C3CCNCC3)[nH]n2)cc1 | > 4.4 µM | > 3.3 µM
24 | c1ccc(CCN2CCC(c3cc(-c4ccncc4)n[nH]3)CC2)cc1 | > 4 µM | 0.052 µM
25 | Clc1ccc(-c2cc(C3CCN(Cc4ccccc4)CC3)[nH]n2)cc1 | 0.16 µM | 0.0091 µM
26 | CN1CCC(c2cc(-c3ccc(Cl)cc3)[nH]n2)CC1 | > 1.9 µM | 1.2 µM
27 | Clc1ccc(-c2cc(C3CCN(Cc4ccccc4Cl)CC3)[nH]n2)cc1 | 1.3 µM | 0.02 µM
28 | Cc1c(-c2ccc(Cl)cc2)nc(N)nc1C1CCN(CCc2ccccc2)CC1 | 1.1 µM | 0.0047 µM
29 | O=C(/C=C(\O)c1ccc(Cl)cc1)C1CCN(Cc2ccccc2)CC1 | 0.51 µM | 0.012 µM
